Data: patent US6656690B2, “Mass spectrometric methods for biomolecular screening” (priority 1998, dated 2003)
Where two headings read alike, the source gives them in different places.

Tests used:
[1] = molecular target: 27-mer model of the bacterial A site region, full ribonucleotide R; assay: Binding to 27-mer A site model as full ribonucleotide (R); conditions: RNA R
Experimental: The 27-mer model of a segment of the bacterial A site region has been prepared as a full ribonucleotide (see FIG. 27, compound R), and as a chimeric 2′-O-methylribonucleotide containing three deoxyadenosine residues (see FIG. 27, compound C). RNAs R and C have been prepared using conventional phosphoramidite chemistry on solid support. Phosphoramidites were purchased from Glen Research and used as 0.1 M solutions in acetonitrile. RNA R was prepared following the procedure given in Wincott, et al., Nucl. Acids Res., 1995, 23, 2677-2684, the disclosure of which is incorporated herein by reference in its entirety. RNA C was prepared using standard coupling cycles, deprotected, and precipitated from 10 M NH4OAc. The aminoglycoside paromomycin binds to both R and C with kD values of 0.25 and 0.45 micromolar, respectively. The reported kD values are around 0.2 μM. […]
The mass spectrum obtained from a 5 μM solution of C mixed with 125 nM paromomycin (FIG. 28A) contains [M-5H]5− ions from free C at m/z 1783.6 and the [M-5H]5− ions of the paromomycin-C complex at m/z 1907.3. […] Signals from the [M-4H]4− ions of C and the complex are detected at m/z 2229.8 and 2384.4, respectively. […] Fragment ions are detected at m/z 1005.6 (w6)2−, 1065.8 (a7-B)2−, 1162.6 (w7)2−, 1756.5 (M-Ad)5−, 2108.9 (w21-Ad)3−, 2153.4 (a20-B)3−, 2217.8 (w21)3−, and 2258.3 (a21-B)3−. […]

[2] = molecular target: prokaryotic 16S rRNA (the A-site); conditions: cited from earlier work

In the case of `NC[C@@H]1O[C@H](O[C@H]2[C@@H](O)[C@H](O[C@@H]3[C@@H](O)[C@H](N)C[C@H](N)[C@H]3O[C@H]3O[C@H](CO)[C@@H](O)[C@H](O)[C@H]3N)O[C@@H]2CO)[C@H](N)[C@@H](O)[C@@H]1O` [paromomycin], the Kd [1] is given as 250 nM, the Kd ([2]; 16S A-site, previously reported, listed as Paromomycin, read-out: literature / solution KD) is given as roughly 200 nM and the Kd ([2]; 16S A-site, previously reported, read-out: literature / solution KD) is given as 200 nM. The Kd ([2]; Recht 1996, Wong 1998, Wang 1997, read-out: reported kD values) was roughly 200 nM and the Kd ([2]; test 27-mer RNA, known from other experiments or literature, read-out: binding affinity) was roughly 1000 nM.
